{"source": "ChEMBL document CHEMBL3233003", "about": "“Chromodomain antagonists that target the polycomb-group methyllysine reader protein chromobox homolog 7 (CBX7)” (J Med Chem, 2014)", "note": "Starred links: 1 amine or outer side, 2 acyl side, 3 side chain; linkers in the order of their positions; H or OH if unused. Non-standard residues stand in square brackets, D forms with d. Residues, ends and D or L forms follow the SMILES beside them. *: point of attachment. Lys(Me3) = C[N+](C)(C)CCCC[C@H](N)C(=O)O; Ethylenediamine = C(CN[*:2])N[*:1]; Gly(cPent) = N[C@H](C(=O)O)C1CCCC1; Ala(cPr) = N[C@@H](CC1CC1)C(=O)O; 3Pal = N[C@@H](Cc1cccnc1)C(=O)O; Cha = N[C@@H](CC1CCCCC1)C(=O)O; Gly(cPr) = N[C@H](C(=O)O)C1CC1; Tle = CC(C)(C)[C@H](N)C(=O)O; X5 = c1ccc2[nH]c(N*)nc2c1; X9 = O[C@H]1CCCC[C@@H]1N*; NHCH(CH2OH)2 = OCC(CO)N*; Nle = CCCC[C@H](N)C(=O)O; Boc = CC(C)(C)OC(=O)*; NHCH2CH2OH = OCCN*; X8 = OCC1(N*)CCCC1; X4 = CC(C)C(CO)N*; X1 = CCCC(CO)N*; NHPr = CCCN*"}
{"molecular_target": "T1, Chromobox protein homolog 7 (Homo sapiens, UniProt O95931)", "T1 sequence (O95931 whole entry)": "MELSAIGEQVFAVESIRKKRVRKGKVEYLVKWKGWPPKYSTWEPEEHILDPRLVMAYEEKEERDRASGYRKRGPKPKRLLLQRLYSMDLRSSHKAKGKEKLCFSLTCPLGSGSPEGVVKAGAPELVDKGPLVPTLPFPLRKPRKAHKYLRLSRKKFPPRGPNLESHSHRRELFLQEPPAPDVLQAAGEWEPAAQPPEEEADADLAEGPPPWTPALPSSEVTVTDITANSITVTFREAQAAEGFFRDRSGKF", "experiment": "Displacement of FITC-labeled H3K27me3 from CBX7 (unknown origin) after 15 mins by fluorescence polarization assay", "units": {"IC50": "µM"}}
{"smiles": "CC[C@H](NC(=O)[C@H](Cc1ccccc1)NC(C)=O)C(=O)N[C@@H](CC(C)C)C(=O)N[C@@H](CCCC[N+](C)(C)C)C(=O)N[C@@H](CO)C(N)=O", "IC50": 39}
{"smiles": "CC(=O)N[C@@H](Cc1ccccc1)C(=O)N[C@@H](C)C(=O)N[C@@H](CC(C)C)C(=O)N[C@@H](CCCC[N+](C)(C)C)C(=O)N[C@@H](CO)C(=O)O", "IC50": 27}
{"smiles": "CC(=O)N[C@@H](Cc1ccccc1)C(=O)N[C@@H](C)C(=O)N[C@@H](CC(C)C)C(=O)N[C@@H](CCCC[N+](C)(C)C)C(=O)N[C@H](CO)C(=O)O", "IC50": 79}
{"smiles": "CC(C)C[C@H](NC(=O)[C@H](C)NCc1ccc(C(=O)O)cc1)C(=O)N[C@@H](CCCC[N+](C)(C)C)C(=O)N[C@@H](CO)C(N)=O", "IC50": "> 2000"}
{"smiles": "CC(=O)N[C@@H](Cc1ccccc1)C(=O)N[C@@H](C)C(=O)N[C@@H](Cc1ccccc1)C(=O)N[C@@H](CCCC[N+](C)(C)C)C(=O)N[C@@H](CO)C(N)=O", "note": "(Ac-FAF[Lys(Me3)]S-NH2)", "IC50": 10.3}
{"smiles": "CC[C@H](C)[C@H](NC(=O)[C@H](C)NC(=O)[C@H](Cc1ccccc1)NC(C)=O)C(=O)N[C@@H](CCCC[N+](C)(C)C)C(=O)N[C@@H](CO)C(N)=O", "note": "(Ac-FAI[Lys(Me3)]S-NH2)", "IC50": 5.7}
{"smiles": "CC(=O)N[C@@H](Cc1ccccc1)C(=O)N[C@@H](C)C(=O)N[C@@H](CCCCN)C(=O)N[C@@H](CCCC[N+](C)(C)C)C(=O)N[C@@H](CO)C(N)=O", "note": "(Ac-FAK[Lys(Me3)]S-NH2)", "IC50": 10.1}
{"smiles": "CC(=O)N[C@@H](Cc1ccccc1)C(=O)N[C@@H](C)C(=O)N[C@@H](CC(C)C)C(=O)N[C@@H](CCCC[N+](C)(C)C)C(=O)NCCN", "note": "(Ac-FAL[Lys(Me3)]-Ethylenediamine)", "IC50": 22}
{"smiles": "CC(=O)N[C@@H](Cc1ccccc1)C(=O)N[C@@H](C)C(=O)N[C@@H](CC(C)C)C(=O)N[C@@H](CCCC[N+](C)(C)C)C(=O)NCCO", "note": "(Ac-FAL[Lys(Me3)]-NHCH2CH2OH)", "IC50": 26}
{"smiles": "CCCNC(=O)[C@H](CCCC[N+](C)(C)C)NC(=O)[C@H](CC(C)C)NC(=O)[C@H](C)NC(=O)[C@H](Cc1ccccc1)NC(C)=O", "note": "(Ac-FAL[Lys(Me3)]-NHPr)", "IC50": 102}
{"smiles": "CC(=O)N[C@@H](Cc1ccccc1)C(=O)N[C@@H](C)C(=O)N[C@@H](CC(C)C)C(=O)N[C@@H](CCCC[N+](C)(C)C)C(=O)O", "note": "(Ac-FAL[Lys(Me3)]-OH)", "IC50": 560}
{"smiles": "CCCC(CO)NC(=O)[C@H](CCCC[N+](C)(C)C)NC(=O)[C@H](CC(C)C)NC(=O)[C@H](C)NC(=O)[C@H](Cc1ccccc1)NC(C)=O", "note": "(stereo partly drawn) (Ac-FAL[Lys(Me3)]-X1)", "IC50": "> 500"}
{"smiles": "CC(=O)N[C@@H](Cc1ccccc1)C(=O)N[C@@H](C)C(=O)N[C@@H](CC(C)C)C(=O)N[C@@H](CCCC[N+](C)(C)C)C(=O)NC(CO)C(C)C", "note": "(stereo partly drawn) (Ac-FAL[Lys(Me3)]-X4)", "IC50": "> 250"}
{"smiles": "CC(=O)N[C@@H](Cc1ccccc1)C(=O)N[C@@H](C)C(=O)N[C@@H](CC(C)C)C(=O)N[C@@H](CCCC[N+](C)(C)C)C(=O)Nc1nc2ccccc2[nH]1", "note": "(Ac-FAL[Lys(Me3)]-X5)", "IC50": 35}
{"smiles": "CC(=O)N[C@@H](Cc1ccccc1)C(=O)N[C@@H](C)C(=O)N[C@@H](CC(C)C)C(=O)N[C@@H](CCCC[N+](C)(C)C)C(=O)NC1(CO)CCCC1", "note": "(Ac-FAL[Lys(Me3)]-X8)", "IC50": "> 250"}
{"smiles": "CC(=O)N[C@@H](Cc1ccccc1)C(=O)N[C@@H](C)C(=O)N[C@@H](CC(C)C)C(=O)N[C@@H](CCCC[N+](C)(C)C)C(=O)N[C@H]1CCCC[C@@H]1O", "note": "(Ac-FAL[Lys(Me3)]-X9)", "IC50": "> 250"}
{"smiles": "CC(=O)N[C@@H](Cc1ccccc1)C(=O)N[C@@H](C)C(=O)N[C@@H](CC(C)C)C(=O)N[C@@H](CCCC[N+](C)(C)C)C(=O)NCCNC(=O)OC(C)(C)C", "note": "(Ac-FAL[Lys(Me3)]-{Ethylenediamine-Boc})", "IC50": 105}
{"smiles": "CC(=O)N[C@@H](Cc1ccccc1)C(=O)N[C@@H](C)C(=O)N[C@@H](CC(C)C)C(=O)N[C@@H](CCCC[N+](C)(C)C)C(=O)NC(CO)CO", "note": "(Ac-FAL[Lys(Me3)]-{NHCH(CH2OH)2})", "IC50": 23}
{"smiles": "CSCC[C@H](NC(=O)[C@H](C)NC(=O)[C@H](Cc1ccccc1)NC(C)=O)C(=O)N[C@@H](CCCC[N+](C)(C)C)C(=O)N[C@@H](CO)C(N)=O", "note": "(Ac-FAM[Lys(Me3)]S-NH2)", "IC50": 62}
{"smiles": "CC(=O)N[C@@H](Cc1ccccc1)C(=O)N[C@@H](C)C(=O)N[C@H](C(=O)N[C@@H](CCCC[N+](C)(C)C)C(=O)N[C@@H](CO)C(N)=O)[C@@H](C)O", "note": "(Ac-FAT[Lys(Me3)]S-NH2)", "IC50": 35}
{"smiles": "CC(=O)N[C@@H](Cc1ccccc1)C(=O)N[C@@H](C)C(=O)N[C@H](C(=O)N[C@@H](CCCC[N+](C)(C)C)C(=O)N[C@@H](CO)C(N)=O)C(C)C", "note": "(Ac-FAV[Lys(Me3)]S-NH2)", "IC50": 6.8}
{"smiles": "CC(=O)N[C@@H](Cc1ccccc1)C(=O)N[C@@H](C)C(=O)N[C@@H](Cc1c[nH]c2ccccc12)C(=O)N[C@@H](CCCC[N+](C)(C)C)C(=O)N[C@@H](CO)C(N)=O", "note": "(Ac-FAW[Lys(Me3)]S-NH2)", "IC50": 13}
{"smiles": "CC(=O)N[C@@H](Cc1ccccc1)C(=O)N[C@@H](C)C(=O)N[C@@H](Cc1cccnc1)C(=O)N[C@@H](CCCC[N+](C)(C)C)C(=O)N[C@@H](CO)C(N)=O", "note": "(Ac-FA[3Pal][Lys(Me3)]S-NH2)", "IC50": 11}
{"smiles": "CC(=O)N[C@@H](Cc1ccccc1)C(=O)N[C@@H](C)C(=O)N[C@@H](CC1CC1)C(=O)N[C@@H](CCCC[N+](C)(C)C)C(=O)N[C@@H](CO)C(N)=O", "note": "(Ac-FA[Ala(cPr)][Lys(Me3)]S-NH2)", "IC50": 11.2}
{"smiles": "CC(=O)N[C@@H](Cc1ccccc1)C(=O)N[C@@H](C)C(=O)N[C@@H](CC1CCCCC1)C(=O)N[C@@H](CCCC[N+](C)(C)C)C(=O)N[C@@H](CO)C(N)=O", "note": "(Ac-FA[Cha][Lys(Me3)]S-NH2)", "IC50": 8.8}
{"smiles": "CC(=O)N[C@@H](Cc1ccccc1)C(=O)N[C@@H](C)C(=O)N[C@H](C(=O)N[C@@H](CCCC[N+](C)(C)C)C(=O)N[C@@H](CO)C(N)=O)C1CCCC1", "note": "(Ac-FA[Gly(cPent)][Lys(Me3)]S-NH2)", "IC50": 6}
{"smiles": "CC(=O)N[C@@H](Cc1ccccc1)C(=O)N[C@@H](C)C(=O)N[C@H](C(=O)N[C@@H](CCCC[N+](C)(C)C)C(=O)N[C@@H](CO)C(N)=O)C1CC1", "note": "(Ac-FA[Gly(cPr)][Lys(Me3)]S-NH2)", "IC50": 21}
{"smiles": "CCCC[C@H](NC(=O)[C@H](C)NC(=O)[C@H](Cc1ccccc1)NC(C)=O)C(=O)N[C@@H](CCCC[N+](C)(C)C)C(=O)N[C@@H](CO)C(N)=O", "note": "(Ac-FA[Nle][Lys(Me3)]S-NH2)", "IC50": 23}
{"smiles": "CC(=O)N[C@@H](Cc1ccccc1)C(=O)N[C@@H](C)C(=O)N[C@H](C(=O)N[C@@H](CCCC[N+](C)(C)C)C(=O)N[C@@H](CO)C(N)=O)C(C)(C)C", "note": "(Ac-FA[Tle][Lys(Me3)]S-NH2)", "IC50": 67}
{"smiles": "CC(=O)N[C@@H](Cc1ccccc1)C(=O)N[C@@H](CO)C(=O)N[C@@H](CC(C)C)C(=O)N[C@@H](CCCC[N+](C)(C)C)C(=O)N[C@@H](CO)C(N)=O", "note": "(Ac-FSL[Lys(Me3)]S-NH2)", "IC50": 53}
{"smiles": "CC(=O)N[C@@H](Cc1ccccc1)C(=O)N[C@H](C(=O)N[C@@H](CC(C)C)C(=O)N[C@@H](CCCC[N+](C)(C)C)C(=O)N[C@@H](CO)C(N)=O)C(C)C", "note": "(Ac-FVL[Lys(Me3)]S-NH2)", "IC50": "> 500"}
{"smiles": "CCCC[C@H](NC(=O)[C@H](Cc1ccccc1)NC(C)=O)C(=O)N[C@@H](CC(C)C)C(=O)N[C@@H](CCCC[N+](C)(C)C)C(=O)N[C@@H](CO)C(N)=O", "note": "(Ac-F[Nle]L[Lys(Me3)]S-NH2)", "IC50": 120}
{"smiles": "CC(=O)N[C@@H](Cc1c[nH]c2ccccc12)C(=O)N[C@@H](C)C(=O)N[C@@H](CC(C)C)C(=O)N[C@@H](CCCC[N+](C)(C)C)C(=O)N[C@@H](CO)C(N)=O", "note": "(Ac-WAL[Lys(Me3)]S-NH2)", "IC50": 7.8}
